Data published in patent US6262084A, “Compounds that inhibit the binding of integrins to their receptors” (Texas Biotechnology Corporation, priority 1999, dated 2001).
pIC50: −log10 of the molar value.

Target: T1, α4β1 integrin (Homo sapiens, UniProt P05556+P13612)
T1 construct: Ramos cells fluorescently labeled with calcein; endogenous in cells; host or cells: Ramos cells
Test: Inhibition of adhesion of calcein-labeled Ramos cells to CS1 (fibronectin) peptide-conjugated ovalbumin
Type: cell-based
Details: for inhibition at 100 µM: Ramos, compound at a concentration of 100 μM, read-out: % A (percent inhibition of cell adhesion); for pIC50: dose required to give 50% inhibition, Ramos cell adhesion to CS1-ovalbumin, 30 minutes at 37° C
Method in brief: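 Calcein-labelled Ramos cells (2.5×10^5/well) in TBS with 1 mM MgCl2, CaCl2 and MnCl2 adhered to CS1 peptide–ovalbumin coated at 5 μg/ml for 30 min at 37 °C, with or without compound. After washing, bound cells were lysed and read by fluorescence. IC50 is the dose giving 50% inhibition, and % inhibition was measured at 100 μM.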

T1 sequence (P13612 34-1032): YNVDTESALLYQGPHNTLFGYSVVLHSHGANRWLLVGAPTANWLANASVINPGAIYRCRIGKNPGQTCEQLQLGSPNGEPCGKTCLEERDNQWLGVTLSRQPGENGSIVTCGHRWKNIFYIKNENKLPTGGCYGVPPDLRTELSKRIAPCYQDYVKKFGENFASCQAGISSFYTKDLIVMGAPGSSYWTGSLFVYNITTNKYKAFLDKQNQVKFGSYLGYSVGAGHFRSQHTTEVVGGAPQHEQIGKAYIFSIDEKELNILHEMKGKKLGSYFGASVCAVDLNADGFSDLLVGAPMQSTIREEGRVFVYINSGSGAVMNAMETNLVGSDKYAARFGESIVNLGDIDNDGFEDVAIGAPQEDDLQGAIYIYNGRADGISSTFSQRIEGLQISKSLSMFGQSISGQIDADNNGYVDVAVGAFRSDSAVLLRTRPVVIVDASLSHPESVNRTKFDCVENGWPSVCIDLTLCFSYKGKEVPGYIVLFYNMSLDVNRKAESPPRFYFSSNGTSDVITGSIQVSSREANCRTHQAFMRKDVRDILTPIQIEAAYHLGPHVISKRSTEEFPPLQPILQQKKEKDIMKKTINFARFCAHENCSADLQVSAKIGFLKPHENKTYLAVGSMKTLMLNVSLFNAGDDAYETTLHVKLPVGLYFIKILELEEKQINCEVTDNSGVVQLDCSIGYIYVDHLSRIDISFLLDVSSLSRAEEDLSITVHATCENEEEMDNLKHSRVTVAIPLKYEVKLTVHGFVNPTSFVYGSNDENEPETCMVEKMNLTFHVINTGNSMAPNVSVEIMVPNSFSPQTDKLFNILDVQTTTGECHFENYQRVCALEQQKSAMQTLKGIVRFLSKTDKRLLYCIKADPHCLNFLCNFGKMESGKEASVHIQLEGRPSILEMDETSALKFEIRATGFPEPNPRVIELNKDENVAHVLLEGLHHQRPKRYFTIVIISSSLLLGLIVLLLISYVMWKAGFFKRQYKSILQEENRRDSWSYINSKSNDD
T1 sequence (P05556 21-798): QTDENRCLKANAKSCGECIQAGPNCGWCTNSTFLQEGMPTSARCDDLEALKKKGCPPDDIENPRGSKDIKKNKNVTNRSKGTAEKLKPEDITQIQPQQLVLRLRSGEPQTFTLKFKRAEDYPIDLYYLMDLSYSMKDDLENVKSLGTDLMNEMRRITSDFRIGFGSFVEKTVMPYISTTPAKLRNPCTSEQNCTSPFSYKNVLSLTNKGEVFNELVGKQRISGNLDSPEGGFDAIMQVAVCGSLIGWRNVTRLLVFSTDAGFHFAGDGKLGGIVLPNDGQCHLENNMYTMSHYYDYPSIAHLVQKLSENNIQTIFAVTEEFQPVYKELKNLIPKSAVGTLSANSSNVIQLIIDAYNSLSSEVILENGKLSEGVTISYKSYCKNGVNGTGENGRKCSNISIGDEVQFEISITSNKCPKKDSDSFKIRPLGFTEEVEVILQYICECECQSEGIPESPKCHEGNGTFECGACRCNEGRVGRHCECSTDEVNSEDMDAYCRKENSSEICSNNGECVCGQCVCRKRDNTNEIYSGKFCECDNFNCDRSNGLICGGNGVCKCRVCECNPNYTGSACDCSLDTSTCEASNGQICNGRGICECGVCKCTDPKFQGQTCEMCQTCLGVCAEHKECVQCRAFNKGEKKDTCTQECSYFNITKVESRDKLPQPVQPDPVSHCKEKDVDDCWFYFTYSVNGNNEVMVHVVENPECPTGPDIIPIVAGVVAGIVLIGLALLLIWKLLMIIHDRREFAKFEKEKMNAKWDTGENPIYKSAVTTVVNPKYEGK

| SMILES | inhibition at 100 µM (Table 1) [%] | pIC50 (Table 1) | pIC50 (Table 2) |
| --- | --- | --- | --- |
| COC(=O)NCCCC[C@@H](CSc1ccccc1)NC(=O)N[C@@H](CC(=O)O)c1ccc2c(c1)OCO2 [(9S,13S)-13-(1,3-benzodioxol-5-yl)-3,11-dioxo-9-[(phenylsulfanyl)methyl]-2-oxa-4,10,12-triazapentadecan-15-oic acid] | 100 | 6.40 |  |
| CC(C)[C@@H](CSc1ccccc1)NC(=O)N[C@@H](CC(=O)O)c1ccc2c(c1)OCO2 [(3S)-3-(1,3-benzodioxol-5-yl)-3-(((((1S)-2-methyl-1-((phenylsulfanyl)methyl)propyl)amino)carbonyl)amino)propanoic acid] | 100 | 5.60 |  |
| CCCC[C@H](NC(=O)N[C@@H](CC(=O)O)c1ccc2c(c1)OCO2)C(=O)Nc1ccccc1C(C)=O [Compound 35, (3S)-3-(1,3-benzodioxol-5-yl)-3-([((1S)-1-[(2-acetylphenyl)amino]carbonylpentyl)amino]carbonylamino)propanoic acid] |  |  | 6.46 |
| CSCC[C@@H](CSc1cccc(N)c1)NC(=O)N[C@@H](CC(=O)O)c1ccc2c(c1)OCO2 [(3S)-3-[({[(1S)-1-{[(3-aminophenyl)thio]methyl}-3-(methylthio)propyl]amino}carbonyl)amino]-3-(1,3-benzodioxol-5-yl)propanoic acid] | 100 | 6.52 |  |
| Cc1ccccc1CNc1ccc(CNC(=O)[C@H](CCCCNC(=O)OCc2ccccc2)NC(=O)N[C@@H](CC(=O)O)c2ccc3c(c2)OCO3)cc1 [(9S,13S)-13-(1,3-benzodioxol-5-yl)-9-[({4-[(2-methylbenzyl)amino]benzyl}amino)carbonyl]-3,11-dioxo-1-phenyl-2-oxa-4,10,12-triazapentadecan-15-oic acid] | 100 | 9.40 |  |
| CSCC[C@@H](CSc1ccc(NCc2ccccc2C)cc1)NC(=O)N[C@@H](CC(=O)O)c1ccc2c(c1)OCO2 [(3S)-3-(1,3-benzodioxol-5-yl)-3-[({[(1S)-1-[({4-[(2-methylbenzyl)amino]phenyl}thio)methyl]-3-(methylthio)propyl]amino}carbonyl)amino]propanoic acid] | 93 | 5.70 |  |
| CCCC[C@@H](CSc1ccc(NC(=O)Nc2ccccc2C)cc1)OC(=O)N[C@@H](CC(=O)O)c1ccc2c(c1)OCO2 [(3S)-3-(1,3-benzodioxol-5-yl)-3-{[({(1S)-1-[({4-[(2-toluidinocarbonyl)amino]phenyl}thio)methyl]pentyl}oxy)carbonyl]amino}propanoic acid] | 100 | 6.52 |  |
| O=C(O)C[C@H](NC(=O)N[C@@H](CSCC1CC1)CSc1ccccc1)c1ccc2c(c1)OCO2 [(3S)-3-(1,3-benzodioxol-5-yl)-3-{[({(1S)-2-[(cyclopropylmethyl)thio]-1-[(phenylthio)methyl]ethyl}amino)carbonyl]amino}propanoic acid] | 100 | 6.70 |  |
| CC(C)(C)OC(=O)C[C@H](NC(=O)N[C@@H](CC(=O)O)c1ccc2c(c1)OCO2)c1ccc2c(c1)OCO2 [(3S)-3-(1,3-benzodioxol-5-yl)-3-[({[(1S)-1-(1,3-benzodioxol-5-yl)-3-(tert-butoxy)-3-oxopropyl]amino}carbonyl)amino]propanoic acid] | 100 | 5.40 |  |
| Cc1ccccc1NC(=O)Nc1ccc(CNC(=O)[C@H](CC(C)C)NC(=O)NC(CC(=O)O)c2ccc3c(c2)OCO3)cc1 (stereo partly drawn) [3-(1,3-benzodioxol-5-yl)-3-{[({(1S)-3-methyl-1-[({4-[(2-toluidinocarbonyl)amino]benzyl}amino)carbonyl]butyl}amino)carbonyl]amino}propanoic acid] | 100 | 7.70 |  |
| O=C(O)C[C@H](NC(=O)N[C@@H](CCCO)CSc1ccccc1)c1ccc2c(c1)OCO2 [(3S)-3-(1,3-benzodioxol-5-yl)-3-{[({(1S)-4-hydroxy-1-[(phenylthio)methyl]butyl}amino)carbonyl]amino}propanoic acid] | 100 | 5.70 |  |
| COC(=O)NCCCC[C@H](NC(=O)N[C@@H](CC(=O)O)c1ccc2c(c1)OCO2)C(=O)NCC1CCNCC1 [(9S,13S)-13-(1,3-benzodioxol-5-yl)-3,11-dioxo-9-{[(4-piperidinylmethyl)amino]carbonyl}-2-oxa-4,10,12-triazapentadecan-15-oic acid] | 97 | 5.30 |  |
| CC(C)[C@@H](CSCc1ccccc1)NC(=O)NC(CC(=O)O)c1ccc2c(c1)OCO2 (stereo partly drawn) [3-(1,3-benzodioxol-5-yl)-3-{[({(1S)-1-[(benzylsulfanyl)methyl]-2-methylpropyl}amino)carbonyl]amino}propanoic acid] | 100 | 5.00 |  |
| CCCC[C@H](NC(=O)N[C@@H](CC(=O)O)c1ccc2c(c1)OCO2)C(=O)NCc1ccc(NCc2nccs2)cc1 [Compound 40, 3(3S)-3-(1,3-benzodioxol-5-yl)-3-([((1S)-1-[(4-(1,3-thiazol-2-ylmethyl)aminobenzyl)amino]carbonylpentyl)amino]carbonylamino)propanoic acid] |  |  | 6.92 |
| CCOC[C@@H](CSc1ccccc1)OC(=O)N[C@@H](CC(=O)O)c1ccc2c(c1)OCO2 [(3S)-3-(1,3-benzodioxol-5-yl)-3-{[({(1S)-2-ethoxy-1-[(phenylthio)methyl]ethyl}oxy)carbonyl]amino}propanoic acid] | 100 | 5.30 |  |
| O=C(O)C[C@H](NC(=O)O[C@H](COCc1ccccc1)CSCc1ccccc1)c1ccc2c(c1)OCO2 [(3S)-3-(1,3-benzodioxol-5-yl)-3-{[({(1R)-2-(benzyloxy)-1-[(benzylthio)methyl]ethyl}oxy)carbonyl]amino}propanoic acid] | 100 | 5.00 |  |
| CSCC[C@@H](CSc1ccccc1N)NC(=O)N[C@@H](CC(=O)O)c1ccc2c(c1)OCO2 [(3S)-3-[({[(1S)-1-{[(2-aminophenyl)sulfanyl]methyl}-3-(methylsulfanyl)propyl]amino}carbonyl)amino]-3-(1,3-benzodioxol-5-yl)propanoic acid] | 100 | 6.52 |  |
| CCCC[C@H](NC(=O)N[C@@H](CC(=O)O)c1ccc2c(c1)OCO2)C(=O)Nc1ccc(C(C)=O)cc1 [Compound 36, 3-(3S)-3-(1,3-benzodioxol-5-yl)-3-([((1S)-1-[(4-acetylphenyl)amino]carbonylpentyl)amino]carbonylamino)propanoic acid] |  |  | 6.00 |
| CCSC[C@@H](CSc1ccccc1)NC(=O)N[C@@H](CC(=O)O)c1ccc2c(c1)OCO2 [(3S)-3-(1,3-benzodioxol-5-yl)-3-{[({(1S)-2-(ethylsulfanyl)-1-[(phenylsulfanyl)methyl]ethyl}amino)carbonyl]amino}propanoic acid] | 100 | 7.30 |  |
| O=C(O)C[C@H](NC(=O)N[C@@H](COCc1ccccc1)CSc1ccccc1)c1ccc2c(c1)OCO2 [(3S)-3-(1,3-benzodioxol-5-yl)-3-{[({(1S)-2-(benzyloxy)-1-[(phenylthio)methyl]ethyl}amino)carbonyl]amino}propanoic acid] | 100 | 6.52 |  |
| CCCS(=O)(=O)Nc1cccc(SC[C@H](CCSC)NC(=O)N[C@@H](CC(=O)O)c2ccc3c(c2)OCO3)c1 [(3S)-3-(1,3-benzodioxol-5-yl)-3-{[({(1S)-3-(methylthio)-1-[({3-[(propylsulfonyl)amino]phenyl}thio)methyl]propyl}amino)carbonyl]amino}propanoic acid] | 100 | 6.30 |  |
| O=C(O)C[C@H](NC(=O)N[C@@H](CCCCNC(=O)OCc1ccccc1)C(=O)NCCc1ccccn1)c1ccc2c(c1)OCO2 [(9S,13S)-13-(1,3-benzodioxol-5-yl)-3,11-dioxo-1-phenyl-9-({[2-(2-pyridinyl)ethyl]amino}carbonyl)-2-oxa-4,10,12-triazapentadecan-15-oic acid] | 100 | 5.70 |  |
